From the supplement of paper PMC10307832

What was measured:
Assay in all cases: relative viability (nuclei count vs DMSO), 5 days (fraction); higher = more cells survive
Wnt-C59 + Trametinib = compound: CC1=NC=CC(=C1)C2=CC=C(C=C2)CC(=O)NC3=CC=C(C=C3)C4=CN=CC=C4 [Wnt-C59] + CC(=O)Nc1cccc(-n2c(=O)n(C3CC3)c(=O)c3c(Nc4ccc(I)cc4F)n(C)c(=O)c(C)c32)c1 [Trametinib] (partner 0.02 µM)
Summary of the method: (§1)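 Five library-drug doses in √10 steps were combined with a fixed anchor-drug dose, or a single drug was given alone, by pin tool to lung cancer cell lines in 1536-well plates the day after seeding. Nuclei were stained and counted after 5 days. Relative viability is the nuclei count in treated wells over that in vehicle wells, taken as the median of duplicate plates.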

Wnt-C59 + Lapatinib = compound: CC1=NC=CC(=C1)C2=CC=C(C=C2)CC(=O)NC3=CC=C(C=C3)C4=CN=CC=C4 [Wnt-C59] + CS(=O)(=O)CCNCc1ccc(-c2ccc3ncnc(Nc4ccc(OCc5cccc(F)c5)c(Cl)c4)c3c2)o1 [Lapatinib] (partner 2 µM)
Summary of the method: as §1

Wnt-C59 + Foretinib = compound: CC1=NC=CC(=C1)C2=CC=C(C=C2)CC(=O)NC3=CC=C(C=C3)C4=CN=CC=C4 [Wnt-C59] + COc1cc2c(Oc3ccc(NC(=O)C4(C(=O)Nc5ccc(F)cc5)CC4)cc3F)ccnc2cc1OCCCN1CCOCC1 [Foretinib] (partner 0.25 µM)
Summary of the method: as §1

Wnt-C59 + Dasatinib = compound: CC1=NC=CC(=C1)C2=CC=C(C=C2)CC(=O)NC3=CC=C(C=C3)C4=CN=CC=C4 [Wnt-C59] + Cc1nc(Nc2ncc(C(=O)Nc3c(C)cccc3Cl)s2)cc(N2CCN(CCO)CC2)n1 [Dasatinib] (partner 0.075 µM)
Summary of the method: as §1

Wnt-C59 + Bortezomib = compound: CC1=NC=CC(=C1)C2=CC=C(C=C2)CC(=O)NC3=CC=C(C=C3)C4=CN=CC=C4 [Wnt-C59] + CC(C)C[C@H](NC(=O)[C@H](Cc1ccccc1)NC(=O)c1cnccn1)B(O)O [Bortezomib] (partner 0.002 µM)
Summary of the method: as §1

Cell Line: UMC-11
- relative viability (Wnt-C59 + Trametinib; first compound 0.001 µM): 0.654
- relative viability (Wnt-C59 + Trametinib; first compound 0.01 µM): 0.812
- relative viability (Wnt-C59 + Trametinib; first compound 0.03162 µM): 0.698
- relative viability (Wnt-C59 + Trametinib; first compound 0.1 µM): 0.758
- relative viability (Wnt-C59 + Lapatinib; first compound 0.001 µM): 0.911
- relative viability (Wnt-C59 + Lapatinib; first compound 0.01 µM): 0.851
- relative viability (Wnt-C59 + Lapatinib; first compound 0.03162 µM): 1.03
- relative viability (Wnt-C59 + Lapatinib; first compound 0.1 µM): 0.749
- relative viability (Wnt-C59 + Foretinib; first compound 0.001 µM): 1.04
- relative viability (Wnt-C59 + Foretinib; first compound 0.01 µM): 1.01
- relative viability (Wnt-C59 + Foretinib; first compound 0.03162 µM): 1.06
- relative viability (Wnt-C59 + Foretinib; first compound 0.1 µM): 0.996
- relative viability (Wnt-C59 + Dasatinib; first compound 0.001 µM): 0.444
- relative viability (Wnt-C59 + Dasatinib; first compound 0.01 µM): 0.417
- relative viability (Wnt-C59 + Dasatinib; first compound 0.03162 µM): 0.525
- relative viability (Wnt-C59 + Dasatinib; first compound 0.1 µM): 0.468
- relative viability (Wnt-C59 + Bortezomib; first compound 0.001 µM): 0.715
- relative viability (Wnt-C59 + Bortezomib; first compound 0.01 µM): 0.616
- relative viability (Wnt-C59 + Bortezomib; first compound 0.03162 µM): 0.75
- relative viability (Wnt-C59 + Bortezomib; first compound 0.1 µM): 0.728
